Measurements: US20240299553A1, “INDOCARBOCYANINE LIPID DERIVATIVES FOR IN VIVO CARGO DELIVERY” (priority 2021, published 2024)

Legend:
[1] = system: 4T1 syngeneic orthotopic breast carcinoma; assay: Confocal microscopy of 4T1 tumor slices after i.v. injection of dual-labeled liposomes; type: in vivo, mice; conditions: for extravasation and migration area in tumor: 24 h after i.v., 290 nm EPC/DSPE-PEG2000 liposomes with 0.2% DiD and Cy3-DSPE
Procedure: Lipids at the following molar ratios: HSPC/Chol/DSPE-PEG2000 (57/38/5) or EPC/DSPE-PEG2000 (95:5) with addition of 0.2% ICL and/or 0.2% FPL were mixed and dried under a nitrogen stream. The dry lipid cake was resuspended in PBS for a total lipid concentration of 20 mM, then incubated at 60° C. for 30 minutes. The solution was then vortexed for 2 minutes and bath sonicated. Liposomes were extruded by a syringe extruder (Avestin, Ottawa, Canada) through Whatman Nucleopore Track-Etch Membranes (200 nm pore size, 15 times). HSPC-based liposomes were extruded at 60° C., EPC-based liposomes were extruded at room temperature. Size and zeta potential were measured at room temperature in the presence of 1% phosphate-buffered saline using Zetasizer Nano (Malvern, UK). Liposomes were stored at 4° C. at a final concentration of 10 mM (total lipid) for a maximum period of 8 weeks before use.
4T1 cell line was purchased from the ATCC and verified using a sequencing core. GL261 cells were obtained from the National Cancer Institute (NCI), and CT2A cells were a gift from Dr. Tom Seyfried (Boston College). LY2 cells were from Dr. Sana Karam, University of Colorado Anschutz Medical campus. Cells were grown at 37° C. in RPMI 1640 medium containing 10% heat-inactivated fetal bovine serum, 10 mM HEPES, 100 U/ml penicillin, and […] streptomycin (all from Corning Inc. New York, NY, USA). BALB/c mice were bred in-house. Mice of 8-10 weeks of age (females) were implanted with 0.5×10^6 cells into the mammary fat pad (4T1) or subcutaneously in the jaw region (LY2) and used for experiments 1 week later when tumors reached ˜200-300 mm^3. For brain tumors, C57BL/6 mice (6-8 weeks old) were implanted with a total 1×10^5 GL261 or CT-2A cells per animal using an established protocol. To determine the distribution of liposomes in tumors and organs, liposomes were injected with 50 μl of 10 mM total lipid intravenously. Blood was collected via periorbital plexus using heparin glass capillaries, and the plasma was separated by centrifugation at 500 g for 5 min. In some experiments, mice were preinjected before dissection with 50 μl of FITC-tomato lectin (1 mg/ml) and 50 μl Hoechst 33324 (2 mg/ml) to visualize the vasculature and the nuclei. Mice were sacrificed with carbon dioxide, followed by cardiac perfusion with PBS through the left ventricle.
Nikon Eclipse AR1HD inverted confocal microscope with 405 nm, 488 nm, 561 nm, and 640 nm excitation lasers and corresponding emission filters was used. For high magnification imaging, liposomes were diluted 1:200 in PBS, mixed with glycerol at 1:1 ratio and 2 μl were placed on slide. For liposomes in plasma, the samples were diluted 1:20 and mixed with glycerol. The preparations in glycerol were spread under a coverslip and imaged under Apo60 or Apo100 Oil objective at 2048×2048 resolution. For tumor imaging, tumors or whole brains were frozen on dry ice and sliced with a blade into 1-2 mm thick slices. The slices were placed on a glass slide and imaged using Plan Apo 10 objective. Channels' voltage and laser intensity were adjusted using the dual labeled liposomes placed on a slide and imaged under the same magnification. These parameters were calibrated before each imaging session using the batch of liposomes used in that experiment. For quantification, multiple random image areas from different slices of the tumor (both periphery and center) were acquired at 512×512 resolution. Images were quantified with Fiji using customized macros. Briefly, 8-bit gray image stacks were thresholded for fluorescence in the Cy3 and Cy5 channels and the percentages of binary (positive) areas were calculated using the “Measure” function. All the data were plotted with Prism version 8.3.0 (GraphPad, San Diego, CA).

[2] = system: syngeneic intracranial GL261 glioma; assay: Confocal microscopy of brain slices of GL261 glioma mice after i.v. dual-labeled liposomes; type: in vivo; conditions: 48 h post-injection, EPC/DSPE-PEG2000 liposomes, 0.2% DiI and 0.2% Cy5-DSPE
Procedure: (§1) 4T1 cell line was purchased from the ATCC and verified using a sequencing core. GL261 cells were obtained from the National Cancer Institute (NCI), and CT2A cells were a gift from Dr. Tom Seyfried (Boston College). LY2 cells were from Dr. Sana Karam, University of Colorado Anschutz Medical campus. Cells were grown at 37° C. in RPMI 1640 medium containing 10% heat-inactivated fetal bovine serum, 10 mM HEPES, 100 U/ml penicillin, and […] streptomycin (all from Corning Inc. New York, NY, USA). BALB/c mice were bred in-house. Mice of 8-10 weeks of age (females) were implanted with 0.5×10^6 cells into the mammary fat pad (4T1) or subcutaneously in the jaw region (LY2) and used for experiments 1 week later when tumors reached ˜200-300 mm^3. […]
(§2) Nikon Eclipse AR1HD inverted confocal microscope with 405 nm, 488 nm, 561 nm, and 640 nm excitation lasers and corresponding emission filters was used. […] For quantification, multiple random image areas from different slices of the tumor (both periphery and center) were acquired at 512×512 resolution. Images were quantified with Fiji using customized macros. Briefly, 8-bit gray image stacks were thresholded for fluorescence in the Cy3 and Cy5 channels and the percentages of binary (positive) areas were calculated using the “Measure” function. […]

[3] = Skin extravasation and accumulation of liposomal lipid dyes; type: in vivo, Mouse
Procedure: FIG. 40B: Liposomes were formulated with Cy3-DSPE, LR-DOPE or DiI. FIG. 40C: Mouse skin was excised 4 days after injection and the microscopic areas of accumulation and extravasation were counted. […] FIG. 40D-40F: circulation and skin accumulation of DiD and Cy5-DSPE liposomes (n=3 per group, 9 different skin areas pooled). FIG. 40G-40H: mixed DiI/Cy5-DSPE liposomes colocalize in skin blood vessels at 1 h, and colocalize in plasma (1000× magnification zoomed). Arrows in FIG. 40G point to DiI extravasation. […] Similar results were observed when mixed Cy3-DSPE/DiD liposomes were used (lower panel).

[4] = Ex vivo fluorescence imaging of excised tumors and livers; type: in vivo, mice
Procedure: Tumors and livers were placed in a 24-well plate and scanned as described above. To match the intensity of the channels, the same liposomes used for injection were diluted (1:10), dotted on a 0.45 μm nitrocellulose membrane, and scanned together with the samples. Mean fluorescence was determined from 8-bit TIFF images using Fiji software by drawing a region of interest around the tumors and using the “Measure” function to determine mean gray values. Such measurement is independent of the organ cross-section area. The mean gray values of non-injected tumors were subtracted from the measurements. For plasma fluorescence profile, plasma collected at different time points was serially diluted, dotted on a nitrocellulose membrane, scanned as above, and the mean fluorescence of dots was plotted versus time with Prism.

[5] = Lipid extraction of tumors and organs, dye biodistribution; type: in vivo, mice; conditions: 48 h post-injection
Procedure: For extraction using a modified Bligh-Dyer method, 50-100 mg tissue was homogenized as described above, 10 parts of chloroform/methanol (2:1) were added to the homogenate (considering that tissue weight is 1 part), and the samples were mixed at 1400 rpm for 2 h at room temperature on Eppendorf Thermomixer. The tubes were centrifuged at 500 g for 10 min. The organic phase (bottom, approximately 80% of the added amount) was carefully collected, dotted on a PVDF membrane and scanned for DiI and Cy5 fluorescence as described above. Different dilutions of liposomes (standard curve) were scanned together with the samples. The percentage of the injected DiI and Cy5 in the extract was calculated from the standard curve and divided by tissue weight. The fluorescence of control non-injected organs was subtracted from that of injected organs. For TLC analysis, the mobile phase consisted of chloroform: methanol (9:1) with 1% trifluoroacetic acid and the samples were run on TLC Silica Gel 60 F254 plates (EMD Millipore).

[6] = Plasma fluorescence elimination profile after liposome injection; type: in vivo, mice; conditions: 24 h post-injection; DiI/Cy5-DSPE liposomes
Procedure: as §1, with “mm^3. For brain tumors, C57BL/6 mice (6-8 weeks old) were implanted with a total 1×10^5 GL261 or CT-2A cells per animal using an established protocol.” for “mm^3.”
Tumors and livers were placed in a 24-well plate and scanned as described above. […] Mean fluorescence was determined from 8-bit TIFF images using Fiji software by drawing a region of interest around the tumors and using the “Measure” function to determine mean gray values. […] For plasma fluorescence profile, plasma collected at different time points was serially diluted, dotted on a nitrocellulose membrane, scanned as above, and the mean fluorescence of dots was plotted versus time with Prism.

LY2 head and neck cancer = assay: Confocal microscopy of LY2 tumors after injection of dual-labeled liposomes; type: in vivo, mice; conditions: 24 h; DiI/Cy5-DSPE labeled EPC/DSPE-PEG2000 liposomes
Procedure: as §1, §2

MOLM13 leukemic cells = assay: MTT cytotoxicity assay in MOLM13 leukemic cells; type: cell-based; conditions: Homo sapiens, MOLM-13, 48 h
human glioma cell lines = conditions: cited from earlier work

CCCCCCCCCCCCCCCCCC(=O)OC[C@H](COP(=O)(O)OCCNC(=O)CCCCCN1/C(=C/C=C/C2=[N+](C)c3ccccc3C2(C)C)C(C)(C)c2ccccc21)OC(=O)CCCCCCCCCCCCCCCCC.O=C[O-] [Cy3-DSPE]
extravasation and migration area in tumor ([1]; p-value<0.0001): mostly stayed in blood vessels

CCCCCCCCCCCCCCCCCCN1C(=CC=CC=CC2=[N+](CCCCCCCCCCCCCCCCCC)c3ccccc3C2(C)C)C(C)(C)c2ccccc21.O=S(=O)([O-])c1ccc(Cl)cc1 [DiD]
extravasation and migration area in tumor ([1]; p-value<0.0001): extravasated and migrated over a significantly larger area than Cy3-DSPE

CCCCCCCCCCCCCCCCCCN1C(=CC=CC2=[N+](CCCCCCCCCCCCCCCCCC)c3ccccc3C2(C)C)C(C)(C)c2ccccc21.[O-][Cl+3]([O-])([O-])[O-] [DiI]
accumulation and spreading in glioma [2]: accumulated and spread in tumors much more efficiently than Cy5-DSPE
extravasation and accumulation in skin cells ([3]; mixed DiI/Cy5-DSPE liposomes, 4 days later): only DiI extravasated and accumulated in skin cells
skin extravasation ([3]; skin excised 4 days after injection, liposomes with Cy3-DSPE, LR-DOPE or DiI): more efficient extravasation than phospholipid dyes
fluorescence in liver images over time ([4]; livers, later time points versus 1 h): increase
fluorescence in tumor images over time ([4]; tumors, 1 h, 24 h, 48 h post-injection): continued to increase at 24 h and 48 h
fluorescence positive area in tumor images ([1]; 4 h, 24 h and 48 h post-injection, EPC/DSPE-PEG2000 DiI/Cy5-DSPE liposomes, p-value<0.0001): significantly larger area than Cy5-DSPE
extravasation and spreading in tumor ([1]; 24 h, 150 nm HSPC/Chol/DSPE-PEG2000 liposomes (DOXIL formula), 0.2% DiI and Cy5-DSPE): more efficient extravasation and spreading
extravasation and distribution in tumor ([1]; 24 h post-injection, EPC/DSPE-PEG2000 liposomes, 0.2 mole % DiI and Cy5-DSPE, i.v.): efficiently extravasated and migrated throughout the tumor
tissues with the highest dye amount [5]: highest in the tumor and liver
dye amount in tumor and organ extracts over time ([5]; tumors, livers, spleens, kidneys, 1 h, 24 h): increase in all organs except the kidney over 48 h
dye cleared from the circulation [6]: approximately 80%
extravasation in tumor (LY2 head and neck cancer): much better extravasation

Nc1ccn([C@@H]2O[C@H](CO)[C@@H](O)[C@@H]2O)c(=O)n1 [cytarabine]
EC50 (MOLM13 leukemic cells): 65 nM

COc1cccc2c1C(=O)c1c(O)c3c(c(O)c1C2=O)C[C@@](O)(C(=O)CO)C[C@@H]3O[C@H]1C[C@H](N)[C@H](O)[C@H](C)O1 [doxorubicin]
toxicity to glioma cells (IC50) (human glioma cell lines): nanomolar range

CC(=O)O[C@H]1C(=O)[C@@]2(C)[C@H]([C@H](OC(=O)c3ccccc3)[C@]3(O)C[C@H](OC(=O)[C@H](O)[C@@H](NC(=O)c4ccccc4)c4ccccc4)C(C)=C1C3(C)C)[C@]1(OC(C)=O)CO[C@@H]1C[C@@H]2O [paclitaxel]
toxicity to glioma cells (IC50) (human glioma cell lines): nanomolar range
